From ChEMBL document CHEMBL4732049, “Anti-tuberculosis activity and its structure-activity relationship (SAR) studies of oxadiazole derivatives: A key review” (Eur J Med Chem, 2021)
Values after ≈ are worked out from the molar mass of the structure shown.

Columns and labels:
[1] = system: Mycobacterium tuberculosis; assay: Antimycobacterial activity against Mycobacterium tuberculosis H37Rv ATCC 27294 by agar dilution method; assay type: functional
[2] = system: Mycobacterium tuberculosis; assay: Antimycobacterial activity against Mycobacterium tuberculosis H37Rv incubated for 5 days by microplate alamar blue assay; assay type: functional; details: 120 h, time 5 day
[3] = system: Mycobacterium tuberculosis; assay: Antimycobacterial activity against Mycobacterium tuberculosis H37Rv incubated for 7 days by microplate alamar blue assay; assay type: functional; details: 168 h, time 7 day
[4] = Selectivity index, ratio of IC50 for CHO-K1 cells to MIC for Mycobacterium tuberculosis H37Rv; assay type: toxicity; details: hamster
CHO-K1 = assay: Cytotoxicity against CHO-K1 cells incubated for 24 hrs by MTT assay; assay type: cell-based; details: Cricetulus griseus, CHO-K1, 24 h
[5] = system: Mycobacterium tuberculosis; assay: Antimycobacterial activity against Mycobacterium tuberculosis H37Rv ATCC 27294 incubated for 5 days by microplate alamar blue assay; assay type: functional; details: H37Rv ATCC 27294, 120 h, time 5 day
[6] = system: Mycobacterium tuberculosis; assay: Antimycobacterial activity against Mycobacterium tuberculosis 209 incubated for 6 days by resazurin microtiter assay; assay type: functional; details: Mycobacterium tuberculosis, 209, 144 h; time 6 day; read-out: MIC100
[7] = system: Mycobacterium tuberculosis; assay: Antimycobacterial activity against Mycobacterium tuberculosis H37Ra incubated for 6 days by resazurin microtiter assay; assay type: functional; details: 144 h, time 6 day
[8] = system: Mycobacterium tuberculosis; assay: Antimycobacterial activity against Mycobacterium tuberculosis H37Rv ATCC 27294 incubated for 6 days by resazurin microtiter assay; assay type: functional; details: H37Rv ATCC 27294, 144 h, time 6 day, read-out: MIC100
[9] = system: Mycolicibacterium smegmatis; assay: Antimycobacterial activity against Mycobacterium smegmatis ATCC607 incubated for 16 to 24 hrs by microdilution liquid method; assay type: functional; details: time 16-24 hrs
Mycolicibacterium phlei = assay: Antimycobacterial activity against Mycobacterium phlei incubated for 5 days by microplate alamar blue assay; assay type: functional; details: 120 h, time 5 day
[10] = system: Mycobacterium tuberculosis; assay: Antimycobacterial activity against Mycobacterium tuberculosis H37Rv assessed as percentage inhibition at 250 ug/ml measured after 2 to 4 weeks by Lowensteine-Jensen method relative to control; assay type: functional; details: time 2-4 weeks
[11] = system: Mycobacterium tuberculosis; assay: Bactericidal activity against Mycobacterium tuberculosis H37Rv at 8 ug/ml measured within 7 days; assay type: functional; details: dose 8 µg/ml; time day <=7
[12] = system: Mycobacterium tuberculosis; assay: Antimycobacterial activity against Mycobacterium tuberculosis H37Rv; assay type: functional
[13] = Toxicity in brine shrimp nauplii assessed as induction of lethality incubated for 24 hrs by counting method; details: artemia salina
[14] = system: Mycobacterium tuberculosis; assay: Antimycobacterial activity against Mycobacterium tuberculosis H37Ra ATCC 25177 by two fold dilution technique; assay type: functional
[15] = system: Mycobacterium tuberculosis; assay: Antimycobacterial activity against Mycobacterium tuberculosis H37Ra ATCC 25177; assay type: functional
[16] = system: Mycobacterium tuberculosis; assay: Antimycobacterial activity against Mycobacterium tuberculosis; assay type: functional, organism-based
[17] = system: Mycobacterium tuberculosis; assay: Antimycobacterial activity against Mycobacterium tuberculosis H37Rv incubated for 5 days by two-fold serial dilution method; assay type: functional; details: 120 h, time 5 day
[18] = system: Mycobacterium tuberculosis; assay: Antimycobacterial activity against Mycobacterium tuberculosis H37Rv ATCC 27294; assay type: functional

COc1ccc(-c2cc(-c3nnc(C)o3)nn2-c2ccc(NC(=O)c3ccccc3)cc2)cc1
MIC [1]: > 50 µg/mL

Cc1nnc(-c2cc(-c3ccc(Cl)cc3)n(-c3ccc(NC(=O)c4ccc(Cl)cc4)cc3)n2)o1
MIC [1]: 3.13 µg/mL (≈ 6.38 µM)

Cn1c(-c2cccc(Cl)c2Cl)nc2cc(-c3nc(-c4ccccc4Cl)no3)ccc21
MIC [2]: 1.6 µg/mL (≈ 3.51 µM)

Oc1ccc(-c2nnc(S)o2)cc1
MIC [3]: 0.6 µg/mL (≈ 3.09 µM) | selectivity ratio [4]: 39 | IC50 (CHO-K1): 23.8 µg/mL (≈ 123 µM)

N#Cc1ccc(-c2nnc(-c3n[nH]cc3-c3ccc(Cl)cc3)o2)cc1
MIC [5]: 25 µg/mL (≈ 71.9 µM)

O=C(Nc1nnc(-c2ccc(Cl)cc2)o1)c1ccc([N+](=O)[O-])o1
MIC [6]: 7.8 µg/mL (≈ 23.3 µM) | MIC ([7]; read-out: MIC100): 7.8 µg/mL (≈ 23.3 µM) | MIC [8]: 7.8 µg/mL (≈ 23.3 µM)

S=c1[nH]nc(CN2CCSCC2)o1
MIC [9]: 7.8 µg/mL (≈ 35.9 µM)

NC(=O)c1cnccn1 [PYRAZINAMIDE]
MIC (Mycolicibacterium phlei): 3.12 µg/mL (≈ 25.4 µM) | MIC [2]: 3.12 µg/mL (≈ 25.4 µM) | MIC [5]: 3.12 µg/mL (≈ 25.3 µM)

Cc1nn(-c2ccccc2)c(Oc2cccc(C(F)(F)F)c2)c1-c1nnc(-c2ccc(Br)cc2)o1
inhibition at 250 µg/mL [10]: 91%

Cc1cccc(Oc2c(-c3nnc(-c4ccc(F)cc4)o3)c(C)nn2-c2ccccc2)c1
inhibition at 250 µg/mL [10]: 91%

Cn1c(-c2cccc(Cl)c2Cl)nc2cc(-c3nc(-c4ccc(Cl)cc4)no3)ccc21
MIC [2]: 1.6 µg/mL (≈ 3.51 µM)

CN1CCN(Cc2nnc(-c3ccccc3)o2)CC1
MIC [5]: 1.6 µg/mL (≈ 6.19 µM)

O=C(Nc1nnc(-c2ccc(F)cc2)o1)c1ccc(Cl)cc1
Activity [11]: >90% | MIC [12]: 1.6 µg/mL (≈ 5.04 µM)

CN[C@@H]1[C@H](O[C@H]2[C@H](O[C@H]3[C@H](O)[C@@H](O)[C@H](N=C(N)N)[C@@H](O)[C@@H]3N=C(N)N)O[C@@H](C)[C@]2(O)C=O)O[C@@H](CO)[C@H](O)[C@H]1O [STREPTOMYCIN]
MIC [9]: 4 µg/mL (≈ 6.88 µM) | MIC (Mycolicibacterium phlei): 6.25 µg/mL (≈ 10.7 µM) | MIC [2]: 6.25 µg/mL (≈ 10.7 µM)

Cn1c(-c2cccc(Cl)c2F)nc2cc(-c3nc(-c4ccc(Cl)cc4)no3)ccc21
MIC [2]: 1.6 µg/mL (≈ 3.64 µM)

COc1ccc(-c2cc(-c3nnc(C)o3)nn2-c2ccc(NC(=O)c3ccc(F)cc3)cc2)cc1
MIC [1]: > 50 µg/mL

Cc1ccc2nc(Cl)c(CN(c3ccccc3)c3nnc(-c4cccnc4)o3)cc2c1
inhibition at 250 µg/mL [10]: 96% | LC50 at 24 h [13]: 26 µM

CC1(C)Cc2c(C#CCO)c(NC(=O)C(C)(C)C)cc(-c3nnc(-c4ccc(C(F)(F)F)cc4)o3)c2O1
MIC [14]: 2 µg/mL (≈ 3.89 µM) | IC90 [15]: 5.7 µM

O=c1[nH]nc(Cc2coc3cc(Br)ccc23)o1
MIC (Mycolicibacterium phlei): 1.56 µg/mL (≈ 5.29 µM) | MIC [2]: 1.56 µg/mL (≈ 5.29 µM)

Cc1ccc(-c2nnc(-c3c(C)nn(-c4ccccc4)c3Oc3cccc(F)c3)o2)cc1
inhibition at 250 µg/mL [10]: > 90%

Clc1nc2ccccc2cc1CN(c1ccccc1)c1nnc(-c2cccnc2)o1
inhibition at 250 µg/mL [10]: 96% | LC50 at 24 h [13]: 26 µM

COc1ccc(-c2nnc(CN3CCN(C)CC3)o2)cc1
MIC [5]: 3.12 µg/mL (≈ 10.8 µM)

O=C(Nc1nnc(-c2ccc(Cl)cc2)o1)c1ccc([N+](=O)[O-])[nH]1
MIC [6]: 7.8 µg/mL (≈ 23.4 µM) | MIC ([7]; read-out: MIC): 7.8 µg/mL (≈ 23.4 µM) | MIC [8]: 31.2 µg/mL (≈ 93.6 µM)

O=C(Nc1nnc(-c2ccc(Cl)cc2)o1)c1cccc([N+](=O)[O-])c1
MIC [6]: 7.8 µg/mL (≈ 22.6 µM) | MIC ([7]; read-out: MIC100): 7.8 µg/mL (≈ 22.6 µM) | MIC [8]: 7.8 µg/mL (≈ 22.6 µM)

Cc1nn(-c2ccccc2)c(Oc2ccc(F)cc2)c1-c1nnc(-c2ccc(Br)cc2)o1
inhibition at 250 µg/mL [10]: 91%

CO[C@H]1/C=C/O[C@@]2(C)Oc3c(C)c(O)c4c(O)c(c(/C=N/N5CCN(C)CC5)c(O)c4c3C2=O)NC(=O)/C(C)=C\C=C\[C@H](C)[C@H](O)[C@@H](C)[C@@H](O)[C@@H](C)[C@H](OC(C)=O)[C@@H]1C [RIFAMPIN]
MIC [3]: 0.2 µg/mL (≈ 0.243 µM) | inhibition at 250 µg/mL [10]: 98%

Cc1ccc(-c2nnc(-c3c(C)nn(-c4ccccc4)c3Oc3ccc(F)cc3)o2)cc1
inhibition at 250 µg/mL [10]: > 90%

S=c1[nH]nc(CN2CCOCC2)o1
MIC [9]: 7.8 µg/mL (≈ 38.8 µM)

O=C(Nc1nnc(-c2ccc(Cl)cc2)o1)c1ccc([N+](=O)[O-])s1
MIC [6]: 7.8 µg/mL (≈ 22.2 µM) | MIC ([7]; read-out: MIC100): 7.8 µg/mL (≈ 22.2 µM) | MIC [8]: 7.8 µg/mL (≈ 22.2 µM)

O=c1[nH]nc(Cc2coc3cc(Cl)ccc23)o1
MIC (Mycolicibacterium phlei): 3.12 µg/mL (≈ 12.5 µM) | MIC [2]: 3.12 µg/mL (≈ 12.5 µM)

CN1CCN(Cc2nnc(-c3ccc(Cl)cc3)o2)CC1
MIC [5]: 3.12 µg/mL (≈ 10.7 µM)

Clc1ccc2nc(Cl)c(CN(c3ccccc3)c3nnc(-c4cccnc4)o3)cc2c1
inhibition at 250 µg/mL [10]: 96% | LC50 at 24 h [13]: 26 µM

Cc1nn(-c2ccccc2)c(Oc2cccc(F)c2)c1-c1nnc(-c2ccccc2)o1
inhibition at 250 µg/mL [10]: 91%

O=C(CCCC(F)(F)F)C1CCC(c2nc(-c3nccs3)no2)CC1 (stereo not given)
IC50 [16]: 0.4 µM

O=C(Nc1nnc(-c2ccc(Cl)cc2)o1)c1ccccc1
MIC [6]: 31.2 µg/mL (≈ 104 µM) | MIC [8]: 7.8 µg/mL (≈ 26 µM)

CN1CCN(Cc2nnc(-c3ccc(O)cc3)o2)CC1
MIC [5]: 3.12 µg/mL (≈ 11.4 µM)

Fc1ccc(-c2nnc(-c3n[nH]cc3-c3ccc(Cl)cc3)o2)cc1
MIC [5]: 25 µg/mL (≈ 73.4 µM)

c1csc(-c2nnc(Cc3cccc4ccccc34)o2)c1
MIC [17]: 0.4 µM (≈ 0.117 µg/mL)

CO[C@H]1O[C@H](Cc2nnc(C)o2)[C@H](OCc2ccccc2)[C@H](OCc2ccccc2)[C@H]1OCc1ccccc1
MIC [18]: 60 µM (≈ 31.8 µg/mL)

Cc1nnc(-c2cc(-c3ccc(Cl)cc3)n(-c3ccc(NC(=O)c4ccccc4Cl)cc3)n2)o1
MIC [1]: 1.56 µg/mL (≈ 3.18 µM)

O=c1[nH]nc(Cc2coc3ccc(Cl)cc23)o1
MIC (Mycolicibacterium phlei): 3.12 µg/mL (≈ 12.5 µM) | MIC [2]: 3.12 µg/mL (≈ 12.5 µM)
